# Article PMC3427755 (Organic & biomolecular chemistry, 2012)
# Entries after “also recorded” stand apart in the source; their conditions may differ.
# How the values were obtained:
# B-Raf^WT = B-Raf^WT (Homo sapiens, UniProt P15056); assay: In vitro B-Raf kinase assay; type: biochemical; conditions: read-out: Inhibition rate (%) B-Raf
# [1] = test system: SW620 (B-Raf^WT) human colonic carcinoma cells; assay: Anti-proliferation activity, SW620 cells; type: cell-based; conditions: SW-620, read-out: Tumor growth inhibition rate SW620 (B-Raf)
# B-Raf^V600E = B-Raf^V600E (Homo sapiens, UniProt P15056, V600E); assay: In vitro B-Raf kinase assay; type: biochemical; conditions: read-out: Inhibition rate (%) B-Raf^V600E
# Sequence of B-Raf^V600E (P15056 433-726 V600E): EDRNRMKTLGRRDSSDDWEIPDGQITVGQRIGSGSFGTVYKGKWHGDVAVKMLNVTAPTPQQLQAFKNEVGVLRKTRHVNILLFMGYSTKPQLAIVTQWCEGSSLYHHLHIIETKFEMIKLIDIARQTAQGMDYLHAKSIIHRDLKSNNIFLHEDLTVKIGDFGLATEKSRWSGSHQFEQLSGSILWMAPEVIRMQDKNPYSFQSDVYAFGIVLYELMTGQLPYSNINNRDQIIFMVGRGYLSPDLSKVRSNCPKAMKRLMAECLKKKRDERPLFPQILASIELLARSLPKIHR
# [2] = test system: A375 (B-Raf^V600E) malignant melanoma cells; assay: Anti-proliferation activity, A375 melanoma cells; type: cell-based, human
# Sequence of B-Raf^WT (P15056 433-726): as the sequence (P15056 433-726 V600E) above, with E168V counted along it
structure (smiles),measurement,setting,value
"CC(C)(C)c1ccc(-c2ccc(C=C3C(=O)NC(=S)NC3=O)o2)cc1 [Compound 22i, 5-[5-(4-tert-butyl-phenyl)-furan-2ylmethylene]-2-thioxo-dihydro-pyrimidine-4,6-dione]",inhibition at 2 µM,B-Raf^WT,29%
same,inhibition at 10 µM,[1],7.6%
same,inhibition at 0.5 µM,B-Raf^V600E,36%
same,inhibition at 2 µM,B-Raf^V600E,57%
same,inhibition at 10 µM,"[2]; Homo sapiens, A-375, read-out: Tumor growth inhibition rate A375(B-Raf^V600E)",95.4%
same,Tumor growth inhibition rate A375(B-Raf^V600E),"[2]; [I]=10μM, 10 µM",potent growth inhibition activity; also recorded: virtually complete growth inhibition
